Experimental data as given in patent publication US10086028B2, “Method for treating vascular inflammation, improving skin beauty and improving male sexual function using ginseng berry” (AMOREPACIFIC CORPORATION, priority 2007, dated 2018).

Key:
TNF-α = experiment: LPS-induced inflammatory factor TNF-α in mouse blood; type: in vivo; conditions: mouse blood about 12 h after LPS, intra-abdominal
Description: (§1) Based on the experimental result in the cell level, the effect of controlling vascular inflammation of the ginseng berry extract was tested in an animal model. Mice were grouped into a non-treated group, an LPS-induced group, a group treated with the ginseng berry extract of Example 1 (50 μg/mL and 100 μg/mL), a group treated with the ginseng berry saponin concentrate of Example 2 (100 μg/mL), a group treated with the ginseng root extract of Comparative Example 1 (100 μg/mL) and groups treated with ginsenosides Rg1, Rg2, Rh1 or Re (10 μg/mL and 20 μg/mL), with 5 mice per each group.
(§2) 100 mg of each test substance per kg body weight of mouse, diluted in saline solution (0.9% NaCl), was intra-abdominally injected three times from day 1 through day 3. 2 hours after the injection on day 3, LPS diluted in saline solution (1 μg/mL) was injected intra-abdominally at a concentration of about 4 mg per kg body weight of mouse to induce inflammation by inflammatory factors (PGE2, TNF-α and IL1-β). After approximately 12 hours, the abdomen of the mouse was cut open, and blood was taken from the artery of the heart and stored at […]. The blood was kept at room temperature for 30 minutes and, after centrifuge at 4° C. and 3,000 rpm for 10 minutes, the supernatant was kept at −20° C. Then, the inflammatory factors PGE2, TNF-α and IL1-β were identified by western blotting. Measurement was made twice and the mean value was calculated. The result is shown in Table 4 and FIG. 9 (PGE2 (ng/mL)), Table 5 and FIG. 10 (TNF-α (ng/mL)), and Table 6 and FIG. 11 (IL1-β (pg/mL)).

type I procollagen = experiment: Type I procollagen assay in human fibroblasts (ELISA); type: cell-based; conditions: 3rd day, sample 10 μg/mL
Description: Human fibroblasts were cultured on a 12-well plate incubator to a concentration of 10^5 cells/well. Then, the medium was replaced by one including the ginseng berry extract of Example 1 (1 μg/mL and 10 μg/mL), the ginseng berry saponin concentrate of Example 2 (10 μg/mL), the ginseng root extract of Comparative Example 1 (10 μg/mL) or ginsenosides Rg1, Rg2, Rh1 or Re (10 μg/mL). 10 ng/mL transforming growth factor β (TGF-β) was used as a positive control substance.
On the 3rd day of culturing, the cells were harvested and the quantity of produced type I procollagen was analyzed using ELISA. The result was calculated as a relative value with respect to the negative control group, which was not treated with a test substance.

Cyclooxygenase-2 (COX-2) = experiment: Inhibition of UV-induced COX-2 biosynthesis in human fibroblasts (western blotting); type: cell-based; conditions: UVA 15 J/cm^2, 2nd day, relative to UV control; sample 10 μg/mL
Description: Human fibroblasts were cultured on a 12-well plate incubator to a concentration of 10^5 cells/well. Then, after irradiating UVA at 15 J/cm^2, the medium was replaced by one including the ginseng berry extract of Example 1 (0.1 μg/mL, 1 μg/mL and 10 μg/mL), the ginseng berry saponin concentrate of Example 2 (10 μg/mL), the ginseng root extract of Comparative Example 1 (0.1 μg/mL, 1 μg/mL and 10 μg/mL) or ginsenosides Rg1, Rg2, Rh1 or Re (10 μg/mL). On the 2nd day of culturing, the cells were harvested and the quantity of produced COX-2 was analyzed using western blotting. The result was calculated as a relative value with respect to the control group, which was irradiated with UV without treating with a test substance, using a densitometer.

[1] = system: matrix metalloproteinase I (MMP-1); experiment: Inhibition of UVB-induced MMP-1 expression in human fibroblasts (ELISA); type: cell-based; conditions: UVB 40 mJ/cm^2, 2nd day, relative to UV control; sample 10 μg/mL
Description: Human fibroblasts were cultured on a 12-well plate incubator to a concentration of 10^5 cells/well. Then, after irradiating UVB at 40 mJ/cm^2, the medium was replaced by one including the ginseng berry extract of Example 1 (1 μg/mL and 10 μg/mL), the ginseng berry saponin concentrate of Example 2 (10 μg/mL), the ginseng root extract of Comparative Example 1 (10 μg/mL) or ginsenosides Rg1, Rg2, Rh1 or Re (10 μg/mL). 10 ng/mL TGF-β was used as a positive control substance. On the 2nd day of culturing, the cells were harvested and the quantity of produced matrix metalloproteinase I (MMP-1) was analyzed using ELISA. The result was calculated as a relative value with respect to the control group, which was irradiated with UV without treating with a test substance.

IL1-β = experiment: LPS-induced inflammatory factor IL1-β in mouse blood; type: in vivo; conditions: mouse blood about 12 h after LPS, intra-abdominal
Description: as §1, §2

PGE2 = experiment: LPS-induced inflammatory factor PGE2 in mouse blood; type: in vivo; conditions: mouse blood about 12 h after LPS, intra-abdominal
Description: as §1, §2

[2] = system: Tumor Necrosis Factor α (TNF-α); experiment: Inhibition of UV-induced TNF-α biosynthesis in human keratinocytes (ELISA); type: cell-based; conditions: UVB 30 mJ/cm^2, 6-24 hours, relative to UV control; sample 10 μg/mL
Description: Human keratinocytes were cultured on a 12-well plate incubator to a concentration of 10^5 cells/well. Then, after irradiating UVB at 30 mJ/cm^2, the medium was replaced by one including the ginseng berry extract of Example 1 (0.1 μg/mL, 1 μg/mL and 10 μg/mL), the ginseng berry saponin concentrate of Example 2 (10 μg/mL), the ginseng root extract of Comparative Example 1 (0.1 μg/mL, 1 μg/mL and 10 μg/mL) or ginsenosides Rg1, Rg2, Rh1 or Re (10 μg/mL). After 6-24 hours of culturing, the cells were harvested and the quantity of TNF-α was analyzed using ELISA (Pharmingen 555212). The result was calculated as a relative value with respect to the control group, which was irradiated with UV without treating with a test substance.

SMILES: CC(C)=CCC[C@](C)(O)[C@H]1CC[C@]2(C)[C@@H]1[C@H](O)C[C@@H]1[C@@]3(C)CC[C@H](O)C(C)(C)[C@@H]3[C@@H](O[C@@H]3O[C@H](CO)[C@@H](O)[C@H](O)[C@H]3O[C@@H]3O[C@@H](C)[C@H](O)[C@@H](O)[C@H]3O)C[C@]12C [Rg2]
- TNF-α, Mean ± standard deviation (TNF-α; group (10 μg/mL)): 35.05 ± 2.47 ng/mL
- TNF-α, Result 1 (TNF-α; group (10 μg/mL)): 33.3 ng/mL
- TNF-α, Result 2 (TNF-α; group (10 μg/mL)): 36.8 ng/mL
- TNF-α, Mean ± standard deviation (TNF-α; group (20 μg/mL)): 31.60 ± 1.98 ng/mL
- TNF-α, Result 1 (TNF-α; group (20 μg/mL)): 30.2 ng/mL
- TNF-α, Result 2 (TNF-α; group (20 μg/mL)): 33 ng/mL
- Procollagen activity relative to negative control (%) (type I procollagen): 110%
- COX-2 biosynthesis (%) (Cyclooxygenase-2 (COX-2)): 97%
- MMP-1 expression (%) [1]: 90%
- IL1-β, Mean ± standard deviation (IL1-β; group (10 μg/mL)): 131.50 ± 3.54 pg/mL
- IL1-β, Result 1 (IL1-β; group (10 μg/mL)): 129 pg/mL
- IL1-β, Result 2 (IL1-β; group (10 μg/mL)): 134 pg/mL
- IL1-β, Mean ± standard deviation (IL1-β; group (20 μg/mL)): 125.00 ± 8.49 pg/mL
- IL1-β, Result 1 (IL1-β; group (20 μg/mL)): 131 pg/mL
- IL1-β, Result 2 (IL1-β; group (20 μg/mL)): 119 pg/mL
- PGE2, Mean ± standard deviation (PGE2; group (10 μg/mL)): 6.15 ± 0.21 ng/mL
- PGE2, Result 1 (PGE2; group (10 μg/mL)): 6 ng/mL
- PGE2, Result 2 (PGE2; group (10 μg/mL)): 6.3 ng/mL
- PGE2, Mean ± standard deviation (PGE2; group (20 μg/mL)): 6.09 ± 0.09 ng/mL
- PGE2, Result 1 (PGE2; group (20 μg/mL)): 6.15 ng/mL
- PGE2, Result 2 (PGE2; group (20 μg/mL)): 6.02 ng/mL
- TNF-α biosynthesis (%) [2]: 101%

SMILES: CC(C)=CCC[C@](C)(O[C@@H]1O[C@H](CO)[C@@H](O)[C@H](O)[C@H]1O)[C@H]1CC[C@]2(C)[C@@H]1[C@H](O)C[C@@H]1[C@@]3(C)CC[C@H](O)C(C)(C)[C@@H]3[C@@H](O[C@@H]3O[C@H](CO)[C@@H](O)[C@H](O)[C@H]3O)C[C@]12C [Rg1]
- TNF-α, Mean ± standard deviation (TNF-α; group (10 μg/mL)): 38.60 ± 2.69 ng/mL
- TNF-α, Result 1 (TNF-α; group (10 μg/mL)): 36.7 ng/mL
- TNF-α, Result 2 (TNF-α; group (10 μg/mL)): 40.5 ng/mL
- TNF-α, Mean ± standard deviation (TNF-α; group (20 μg/mL)): 34.55 ± 2.90 ng/mL
- TNF-α, Result 1 (TNF-α; group (20 μg/mL)): 36.6 ng/mL
- TNF-α, Result 2 (TNF-α; group (20 μg/mL)): 32.5 ng/mL
- Procollagen activity relative to negative control (%) (type I procollagen): 105%
- COX-2 biosynthesis (%) (Cyclooxygenase-2 (COX-2)): 95%
- MMP-1 expression (%) [1]: 98%
- IL1-β, Mean ± standard deviation (IL1-β; group (10 μg/mL)): 133.50 ± 7.78 pg/mL
- IL1-β, Result 1 (IL1-β; group (10 μg/mL)): 128 pg/mL
- IL1-β, Result 2 (IL1-β; group (10 μg/mL)): 139 pg/mL
- IL1-β, Mean ± standard deviation (IL1-β; group (20 μg/mL)): 141.50 ± 9.19 pg/mL
- IL1-β, Result 1 (IL1-β; group (20 μg/mL)): 135 pg/mL
- IL1-β, Result 2 (IL1-β; group (20 μg/mL)): 148 pg/mL
- PGE2, Mean ± standard deviation (PGE2; group (10 μg/mL)): 6.32 ± 0.04 ng/mL
- PGE2, Result 1 (PGE2; group (10 μg/mL)): 6.29 ng/mL
- PGE2, Result 2 (PGE2; group (10 μg/mL)): 6.35 ng/mL
- PGE2, Mean ± standard deviation (PGE2; group (20 μg/mL)): 6.26 ± 0.07 ng/mL
- PGE2, Result 1 (PGE2; group (20 μg/mL)): 6.31 ng/mL
- PGE2, Result 2 (PGE2; group (20 μg/mL)): 6.21 ng/mL
- TNF-α biosynthesis (%) [2]: 98%

SMILES: CC(C)=CCC[C@](C)(O)[C@H]1CC[C@]2(C)[C@@H]1[C@H](O)C[C@@H]1[C@@]3(C)CC[C@H](O)C(C)(C)[C@@H]3[C@@H](O[C@@H]3O[C@H](CO)[C@@H](O)[C@H](O)[C@H]3O)C[C@]12C [Rh1]
- TNF-α, Mean ± standard deviation (TNF-α; group (10 μg/mL)): 32.55 ± 5.16 ng/mL
- TNF-α, Result 1 (TNF-α; group (10 μg/mL)): 28.9 ng/mL
- TNF-α, Result 2 (TNF-α; group (10 μg/mL)): 36.2 ng/mL
- TNF-α, Mean ± standard deviation (TNF-α; group (20 μg/mL)): 32.15 ± 3.32 ng/mL
- TNF-α, Result 1 (TNF-α; group (20 μg/mL)): 29.8 ng/mL
- TNF-α, Result 2 (TNF-α; group (20 μg/mL)): 34.5 ng/mL
- Procollagen activity relative to negative control (%) (type I procollagen): 105%
- COX-2 biosynthesis (%) (Cyclooxygenase-2 (COX-2)): 99%
- MMP-1 expression (%) [1]: 90%
- IL1-β, Mean ± standard deviation (IL1-β; group (10 μg/mL)): 121.50 ± 7.78 pg/mL
- IL1-β, Result 1 (IL1-β; group (10 μg/mL)): 116 pg/mL
- IL1-β, Result 2 (IL1-β; group (10 μg/mL)): 127 pg/mL
- IL1-β, Mean ± standard deviation (IL1-β; group (20 μg/mL)): 112.75 ± 6.72 pg/mL
- IL1-β, Result 1 (IL1-β; group (20 μg/mL)): 108 pg/mL
- IL1-β, Result 2 (IL1-β; group (20 μg/mL)): 117.5 pg/mL
- PGE2, Mean ± standard deviation (PGE2; group (10 μg/mL)): 6.13 ± 0.04 ng/mL
- PGE2, Result 1 (PGE2; group (10 μg/mL)): 6.15 ng/mL
- PGE2, Result 2 (PGE2; group (10 μg/mL)): 6.1 ng/mL
- PGE2, Mean ± standard deviation (PGE2; group (20 μg/mL)): 5.46 ± 0.20 ng/mL
- PGE2, Result 1 (PGE2; group (20 μg/mL)): 5.6 ng/mL
- PGE2, Result 2 (PGE2; group (20 μg/mL)): 5.32 ng/mL
- TNF-α biosynthesis (%) [2]: 98%
